Data as given in patent US6019959A, “Oligomeric compounds that contain perfluoroalkyl, process for their production, and their use in NMR diagnosis” (Schering Aktiengesellschaft, priority 1998, dated 2000).
Entries after “also recorded” stand apart in the source; their conditions may differ. Like-named read-outs stand apart in the source and are kept apart here.

Tests used:
[1] = cited from earlier work
[2] = rat, in vivo; cited from earlier work
[3] = Determination of the T1-relaxivity with a Minispec pc 20 in human plasma; type: physicochemical; details: for R^1 (T^1-relaxivity): 0.47 T (20 MHz), 37° C., human plasma, normalized to one metal atom; for relaxivity r1,plasm: plasma
Description: Determination of the T^1 -Relaxivity of Selected Compounds
The relaxivity of the following compounds was determined
with a Minispec pc 20 (20 MHz, 0.47 T) at 37° C. in human plasma
and compared to that of Gd-DTPA-polylysine and Magnevist^(R) as
comparison substances. Since the substances according to the
invention contain more than one metal atom, the relaxivity was
normalized to one metal atom for purposes of comparison.

[4] = Retention of the opacifying metal at the injection site; type: in vivo, guinea pig; details: 10 μmol/kg s.c., MW±SD, n=3
From the text: After s.c. administration of 10 μmol of total gadolinium (Example 19)/kg of body weight in the guinea pig's paw, the retention of metal at the injection site was studied at different times.
Gd-Concentration [% dose] at the Administration Site (Paw), After Interstitial Administration of 10 μmol/kg (MW±SD, n=3)

[5] = Lymph node concentration in guinea pigs after subcutaneous administration (ICP-AES); type: in vivo, guinea pig; details: 10 μmol/kg s.c., MW±SD, n=3
From the text: The compounds according to the invention meet all of the requirements that are imposed by contrast media in indirect NMR lymphography: good local compatibility, quick removal from the injection site, quick and as complete an elimination as possible from the entire organism. They also show a high concentration over several lymph node stations and thus allow relevant diagnostic assessments. Thus, in the guinea pig model, a high concentration over several lymph node stations (popliteal, inguinal, iliac) after s.c. administration (2.5-10 μmol/kg of body weight, injection in the interdigital spaces of the hind paws) was shown. In especially suitable cases, gadolinium concentrations of, respectively, ≥200 or ≥300 μmol/l were thus obtained in the second (inguinal) and third (iliac) stations. Lymph node concentrations up to 1,000 μmol/l can usually be obtained with the compounds according to the invention.
The gadolinium complex of Example 19 was studied 30 minutes/90 minutes after subcutaneous administration (10 μmol of total gadolinium/kg of body weight, hind paw s.c.) to stimulated guinea pigs (complete Freund adjuvant; in each case 0.1 ml in the right and left upper and lower legs; 2 weeks before administration of the test substance) to determine their lymph node concentration in three successive lymph node stations (popliteal, inguinal, iliac). In this case, the results that are listed below (determination of gadolinium concentration using ICP-AES) are obtained:
Gd-Concentration [μmol/l] in three successive lymph node stations 30 and 90 minutes after interstitial administration of 10 μmol/kg (MW±SD, n=3)

[6] = Blood elimination kinetics after one-time intravenous administration; type: in vivo, rats; details: for Distribution volume Vss (MEAN) / Elimination half-life tβ (MEAN) / Total clearance CLtot (MEAN) / tα (MEAN): two-compartment model, n=3; for distribution volume in comparison to Dy-DTPA / elimination from the blood in comparison to Dy-DTPA: i.v., rats
Description: (§1) For this purpose, after one-time intravenous administration (via a caudal vein) of the substances (dose: ≈100 μmol of metal per kg of body weight), the substance concentration in the blood (based on the Gd or Dy content) was determined over a period of up to 120 minutes p.i. using ICP-AES. The pharmacokinetic parameters: distribution volume (Vss), total clearance (CLtot) and elimination half-life (tb) were calculated with a special computer program (TOPFIT 2.0; Thomae, Schering, Godecke), whereby a two-compartment distribution model was used as a basis.
The Gd and Dy contents in the blood were determined using ICP-AES.
as §1, with “metal” for “Gd or Dy”

[7] = Elimination of the contrast medium after s.c. administration (metal retention in organs); type: in vivo, guinea pig; details: 7 d p.i., 10 μmol/kg s.c., MW±SD, n=2
From the text: After subcutaneous administration of 10 μmol of total gadolinium (Example 19)/kg of body weight in the hind paw of the guinea pig, the retention of metal in the liver, in the kidneys and in the spleen was examined 7 days after administration.
Gd Concentration [% of Dose] in the Liver, Kidneys, Spleen (7 d p.i.) After Interstitial Administration of 10 μmol/kg (MW±SD, n=2)

[8] = In-vivo comparison with an intravascular and an extracellular contrast medium in blocked kidneys (diffusibility); set-up: species or system rats; details: for Percentage of the dose that remains in the blood space: i.v., blocked renal vessels, compound 2 set at 100%
Description: As test animals, three 250 g male (Schering-SPF) rats were used. The renal vessels in the animals were blocked to prevent renal elimination and, assuming that fecal elimination is negligible, to obtain a measure of the diffusibility of the formulation according to the invention from the blood into the surrounding tissue. 0.5 ml (in each case 10 mmol/l) of the following contrast medium solution was intravenously administered per animal: a mixture consisting of 1 part each of the compound of Example 1g, named compound 1 below, of intravascular contrast medium Eu-DTPA-albumin, named compound 2 below and of extracellular contrast medium Dy-DTPA, named compound 3 below. Via a catheter in the common carotid artery, blood samples were taken at the following times: 15, 30, 45, 60, 90 seconds; 3, 5, 10, 15 minutes p.i. In the blood samples that were obtained, in each case the concentrations of gadolinium (Gd), europium (Eu) and dysprosium (Dy) were measured in parallel using atom emission spectrometry (ICP-AES). The proportion of the intravascular contrast medium compound 2 (Eu) that remains in the blood space was set at 100%. It was possible to compare the proportion of the formulation according to the invention of compound 1 (Gd) and compound 3 (Dy, extracellular comparison substance) that remained in the blood space by the different labeling in the same animal, and the proportion was set as a percentage of the concentration of compound 2.

[9] = Contrast-medium-supported MR angiography; type: in vivo, rats; details: one-time i.v. 50 or 100 μmol/kg, 2.0 tesla
Description: The studies on contrast-medium-supported MR angiography were performed on an experimental MRT system (SISCO SIS 85, 2.0 tesla) with a 3 D FLASH technique (10/2.6/40°).
To determine the effectiveness of contrast media for visualizing blood vessels, anesthetized (Rompun®+Ketavet®, 1+1, v/v; ≈1 ml per kg of body weight, i.m.) rats (Han. Wistar; ≈200 g of body weight) were studied by MR tomography.
The MIP (maximum intensity projection) images were calculated from the 3 D FLASH experiments before (left) and directly after one-time i.v. administration of 50 μmol/kg (center) or 100 μmol/kg (right) of the substance of Example 1g.

[10] = Table 4, i.v. ≈100 μmol metal/kg
[11] = Table 3, i.v. ≈100 μmol metal/kg

Molecule: albumin-Gd-DTPA
- concentration in the liver tissue ([1]; 24 hours after intravenous injection): ~30 % of the dose
- dose eliminated ([1]; within 24 hours): 20 % of the dose

Molecule: Gd-DTPA-polylysine [reference compound]
- excretion route [2]: excreted through the kidneys unaltered by glomerular filtration
- R^1 (T^1-relaxivity) [3]: 16.8 L/mmol/s

Molecule: 1,4,7-Tris{1,4,7-tris(N-carboxylatomethyl)-10-[N-(4,7-diaza-3,6,9-trioxo)-nonane-2,9-diyl]-1,4,7,10-tetraazacyclododecane, Gd complex}-10-[N-acetyl-(2-amino-N-ethyl-N-perfluoro-octylsulfonyl)]-1,4,7,10-tetraazacyclododecane [Example 19]
- Gadolinium concentration at the injection site (paw) ([4]; 30 minutes p.i.): 48.4 ± 10.4 % of dose
- Gadolinium concentration at the injection site (paw) ([4]; 90 minutes p.i.): 8.0 ± 1.7 % of dose
- Gadolinium concentration at the injection site (paw) ([4]; 7 days p.i.): 0.7 ± 0.6 % of dose
- concentration ([5]; 30 minutes p.i., read-out: Gd concentration, blood): 24 ± 3 µM
- concentration ([5]; 30 minutes p.i., read-out: Gd concentration, iliac lymph nodes): 50 ± 18 µM
- concentration ([5]; 30 minutes p.i., read-out: Gd concentration, inguinal profund lymph nodes): 43 ± 41 µM
- concentration ([5]; 30 minutes p.i., read-out: Gd concentration, popliteal lymph nodes): 345 ± 319 µM
- concentration ([5]; 30 minutes p.i., read-out: Gd concentration, urine): 261 ± 167 µM
- concentration ([5]; 90 minutes p.i., read-out: Gd concentration, blood): 25 ± 4 µM
- concentration ([5]; 90 minutes p.i., read-out: Gd concentration, iliac lymph nodes): 20 ± 8 µM
- concentration ([5]; 90 minutes p.i., read-out: Gd concentration, inguinal profund lymph nodes): 9 ± 2 µM
- concentration ([5]; 90 minutes p.i., read-out: Gd concentration, popliteal lymph nodes): 75 ± 20 µM
- concentration ([5]; 90 minutes p.i., read-out: Gd concentration, urine): 348 ± 119 µM
- Distribution volume Vss (MEAN) [6, 10]: 0.12 Ukg
- Elimination half-life tβ (MEAN) [6, 10]: 1.49 h
- Total clearance CLtot (MEAN) [6, 10]: 0.94 mL·kg·min
- tα (MEAN) [6, 10]: 2.52 min
- distribution volume in comparison to Dy-DTPA [6]: smaller distribution volume
- elimination from the blood in comparison to Dy-DTPA [6]: significantly slower elimination from the blood
- Gadolinium content in the organs, kidneys [7]: 0.06 ± 0.04 % dose
- Gadolinium content in the organs, liver [7]: 0.09 ± 0.09 % dose
- Gadolinium content in the organs, spleen [7]: 0.00 ± 0.01 % dose
- R^1 (T^1-relaxivity) [3]: 21.4 L/mmol/s
- relaxivity r1,plasm [3]: ≈ 19.5 l*mmol^-1 *s^-1

Molecule: CC(C(=O)NCC(=O)NCC(=O)N1CCN(C(=O)CNC(=O)CNC(=O)C(C)N2CCN(CC(=O)[O-])CCN(CC(=O)[O-])CCN(CC(=O)[O-])CC2)CCN(C(=O)COCCC(F)(F)C(F)(F)C(F)(F)C(F)(F)C(F)(F)C(F)(F)C(F)(F)C(F)(F)F)CCN(C(=O)CNC(=O)CNC(=O)C(C)N2CCN(CC(=O)[O-])CCN(CC(=O)[O-])CCN(CC(=O)[O-])CC2)CC1)N1CCN(CC(=O)[O-])CCN(CC(=O)[O-])CCN(CC(=O)[O-])CC1.[Gd+3].[Gd+3].[Gd+3] (centres unmarked) [Example 1g, 1,4,7-Tris{,1,4,7-tris(N-carboxylatomethyl)-10-(N-1-methyl-3,6-diaza-2,5,8-trioxo-octane-1,8-diyl)-1,4,7,10-tetraazacyclododecane, Gdcomplex}-10-(N-2H,2H,4H,4H,5H,5H-3-oxa-perfluoro-tridecanoyl)-1,4,7,10-tetraazacyclododecane]
- Percentage of the dose that remains in the blood space ([8]; 30 seconds p.i.): 84%
- Percentage of the dose that remains in the blood space ([8]; 3 minutes p.i.): 62%
- Percentage of the dose that remains in the blood space ([8]; 10 minutes p.i.): 44%
- diffusibility from the vascular space into the surrounding tissue ([8]; compared with compound 2 and compound 3, listed as compound 1): slower during the entire test period; also recorded: significantly lower compared to the free diffusible, extracellular compound 3
- Distribution volume Vss (MEAN) [6, 11]: 0.09 Ukg
- Elimination half-life tβ (MEAN) [6, 11]: 2.813 h
- Total clearance CLtot (MEAN) [6, 11]: 0.41 mU (min*kg)
- tα (MEAN) [6, 11]: 4.06 min
- distribution volume in comparison to Dy-DTPA [6]: smaller distribution volume
- elimination from the blood in comparison to Dy-DTPA [6]: significantly slower elimination from the blood
- signal in the blood vessels in MR angiography (3 D FLASH, MIP) [9]: pronounced signal increase in the blood vessels
- R^1 (T^1-relaxivity) [3]: 19.5 L/mmol/s
- relaxivity r1,plasm [3]: ≈ 19.5 l*mmol^-1 *s^-1
